These are literature values, as cited in patent US6423302B1, “Use of octocrylene for solubilizing 2,4-bis{[4-(2-ethyl-hexyloxy)-2-hydroxy]-phenyl}-6-(4-methoxyphenyl)-1,3,5-triazine in cosmetic or dermatological light protection compositions” (Beiersdorf AG, priority 1999, dated 2002).

For this series the following is noted: prior-art statement.

`CCCCC(CC)COc1ccc(-c2nc(-c3ccc(OC)cc3)nc(-c3ccc(OCC(CC)CCCC)cc3O)n2)c(O)c1` (centres unmarked) [2,4-bis-{[4-(2-ethylhexyloxy)-2-hydroxy]phenyl}-6-(4-methoxyphenyl)-1,3,5-triazine]: the “maximum amount of this filter that known solvents can dissolve” value (known solvents for this UV filter (lipids)) is not above 10 % by weight. Further, for the setting “stated as main disadvantage”, the solubility in lipids entry is recorded as “poor solubility in lipids”.
